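Cultured in 96-well plates, cells were exposed to test compound for 48 hours across five concentrations. GI50 = concentration required for 50% inhibition of growth.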 The source made the active and inactive calls. Cut-off read from the data, not from the text of the source: active = GI50 up to about 1.1 µM and inactive = higher.
Tests used:
Test in all cases: NCI tumour cell line growth inhibition, 48 h
[1] = system: ACHN
[2] = system: MCF7
[3] = system: CCRF-CEM
[4] = system: M14
[5] = system: CAKI-1
[6] = system: KM12
[7] = system: OVCAR-8
[8] = system: OVCAR-5
[9] = system: SW-620
[10] = system: MDA-MB-231
[11] = system: A549
[12] = system: HT-29
[13] = system: NCI-H226
[14] = system: SN12C
[15] = system: 786-0
[16] = system: SK-MEL-2
[17] = system: Hs-578T
[18] = system: LOX IMVI
[19] = system: HOP-92
[20] = system: HL-60

Measured: GI50

Cc1cc2c(nn1)CCc1c-2no[n+]1[O-]
inactive: [1] > 100 µM | [2] > 100 µM | [3] > 100 µM | [4] > 100 µM | [5] > 100 µM | [6] > 100 µM | [7] > 100 µM | [8] > 100 µM | [9] > 100 µM | [10] > 100 µM | [11] > 100 µM | [12] > 100 µM | [13] > 100 µM | [14] > 100 µM | [15] > 100 µM | [16] 50.1 µM | [17] > 100 µM | [18] > 100 µM

Cc1ccc(S(=O)(=O)ON2C(=O)c3cccc4cc([N+](=O)[O-])cc(c34)C2=O)cc1
inactive: [1] 62.1 µM | [2] 33.7 µM | [4] > 100 µM | [5] 55.8 µM | [6] 32.6 µM | [7] > 100 µM | [8] > 100 µM | [9] 66.1 µM | [10] 56.2 µM | [11] > 100 µM | [12] 28.6 µM | [13] 54.8 µM | [14] 81.3 µM | [15] 47.5 µM | [16] 84.5 µM | [19] 50.5 µM | [17] 68.1 µM | [18] 32 µM

O=C(CN1C(=O)CC(c2ccccc2)(c2ccccc2)C1=O)N1CCN(CCO)CC1
inactive: [1] > 100 µM | [2] > 100 µM | [3] > 100 µM | [4] > 100 µM | [5] > 100 µM | [6] > 100 µM | [7] > 100 µM | [8] > 100 µM | [9] > 100 µM | [10] > 100 µM | [11] > 100 µM | [12] > 100 µM | [14] > 100 µM | [15] > 100 µM | [16] > 100 µM | [19] > 100 µM | [17] > 100 µM | [18] > 100 µM

CC(=O)/N=C1\N/C(=C\c2ccc(Cl)cc2)C(=O)N1/C=C1\C(=O)Oc2ccccc2C1=O
inactive: [1] > 100 µM | [2] > 100 µM | [3] > 100 µM | [4] > 100 µM | [5] > 100 µM | [6] > 100 µM | [7] > 100 µM | [20] > 100 µM | [8] > 100 µM | [9] > 100 µM | [10] > 100 µM | [11] > 100 µM | [12] > 100 µM | [13] > 100 µM | [14] > 100 µM | [15] > 100 µM | [16] > 100 µM | [17] 1.4 µM | [18] > 100 µM

CC(C)C(/C=C/c1ccc(Cl)cc1)=N\NC(=S)NN
inactive: [1] 10.6 µM | [2] 15.6 µM | [3] 2.68 µM | [4] 18.9 µM | [5] 22.4 µM | [6] 23.8 µM | [7] 12 µM | [20] 4.99 µM | [8] 30.9 µM | [9] 14.1 µM | [10] > 100 µM | [11] 31.6 µM | [12] 23.3 µM | [13] 10.4 µM | [14] 14.1 µM | [15] 20.5 µM | [16] 7.03 µM | [17] 14.6 µM | [18] 7.76 µM

OC(c1ccc(-c2ccccc2)cc1)(c1ccc(-c2ccccc2)cc1)c1ccc(-c2ccccc2)cc1
inactive: [1] > 100 µM | [2] > 100 µM | [3] > 10 µM | [4] 52.7 µM | [5] > 100 µM | [6] > 100 µM | [7] > 100 µM | [20] > 10 µM | [8] > 100 µM | [10] 53.7 µM | [11] > 100 µM | [12] > 100 µM | [14] > 100 µM | [15] > 100 µM | [17] > 100 µM | [18] > 100 µM

COc1ccc(C2C3=C(Nc4ncnn42)c2ccccc2OC3c2ccccc2)cc1 (stereo not given)
inactive: [1] 18.5 µM | [2] 13.5 µM | [4] 61.8 µM | [5] 26.5 µM | [6] 14.6 µM | [7] 80.2 µM | [20] 2.27 µM | [8] 89.1 µM | [9] 41.7 µM | [10] 49.1 µM | [11] 14.9 µM | [14] > 100 µM | [15] 47.1 µM | [16] 6 µM | [17] 19.1 µM | [18] 61.8 µM

CC(C)(NO)/C(=N\O)c1ccco1
inactive: [1] > 100 µM | [2] > 100 µM | [4] > 100 µM | [5] > 100 µM | [6] > 100 µM | [7] > 100 µM | [8] > 100 µM | [9] > 100 µM | [10] > 100 µM | [11] > 100 µM | [12] > 100 µM | [13] > 100 µM | [14] > 100 µM | [15] > 100 µM | [16] > 100 µM | [19] > 100 µM | [17] 24 µM | [18] > 100 µM

COC(=O)C(/C(=N/NC(N)=O)C(=O)Nc1ccc(C)cc1)c1nc2ccc([N+](=O)[O-])cc2nc1O (stereo not given)
inactive: [2] > 100 µM | [3] > 10 µM | [4] > 100 µM | [5] > 100 µM | [6] 74.3 µM | [7] > 100 µM | [8] > 100 µM | [9] > 100 µM | [10] > 100 µM | [11] > 100 µM | [12] > 100 µM | [13] > 100 µM | [14] > 100 µM | [15] > 100 µM | [16] > 100 µM | [19] > 100 µM | [17] 67.3 µM | [18] 69.3 µM

O=C(CCCNc1nc(-c2ccccc2)cs1)c1cccs1
inactive: [1] > 100 µM | [2] > 100 µM | [4] > 100 µM | [5] > 100 µM | [6] > 100 µM | [7] > 100 µM | [8] > 100 µM | [9] > 100 µM | [10] > 100 µM | [11] > 100 µM | [12] > 100 µM | [13] > 100 µM | [14] > 100 µM | [15] > 100 µM | [16] > 100 µM | [17] > 100 µM | [18] > 100 µM

Oc1cc(-c2ccc3ccccc3c2)nc2ncccc12
inactive: [1] 31.9 µM | [2] 5.77 µM | [3] 7.64 µM | [4] 7.13 µM | [6] 4.88 µM | [7] 23 µM | [8] 31.3 µM | [9] 5.18 µM | [10] 9.02 µM | [11] 4.68 µM | [12] 4.16 µM | [13] 23 µM | [14] 23.6 µM | [15] 12.1 µM | [16] 4.95 µM | [19] 8.34 µM | [17] 9.35 µM | [18] 9.93 µM

Reference: ChEMBL document CHEMBL1201862, “PubChem BioAssay data set” (2004)
